Tested on: adrenocortical cells prepared from an adrenoma of a patient suffering from Conn's syndrome
Assay: cells
Conditions: Homo sapiens, read-out: concentration effecting maximum inhibition of aldosterone secretion stimulated by angiotensin II

Q: Which IC (maximum) does the source give for N#Cc1ccc(C2CCCc3cncn32)cc1 (racemic) [5-(p-cyanophenyl)-5,6,7,8-tetrahydroimidazo[1,5-a]pyridine] here?
A: 0.1 µM

Reference: patent publication US5057521A, “Use of bicyclic imidazole compounds for the treatment of hyperaldosteronism” (Ciba-Geigy Corporation, priority 1988, dated 1991)
